Entries after “also recorded” stand apart in the source; their conditions may differ.

In one assay the target is T1, sPLA2 (GV) (Homo sapiens, UniProt P39877).
T1 sequence (P39877 21-138): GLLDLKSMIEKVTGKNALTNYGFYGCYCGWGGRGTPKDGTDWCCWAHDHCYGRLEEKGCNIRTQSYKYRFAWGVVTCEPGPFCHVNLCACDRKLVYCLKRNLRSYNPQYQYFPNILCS
The assay is described as follows: sPLA2 inhibition assay. It is filed as biochemical. The settings on record: at 0.091 mol fraction. Here is the method: The compounds described herein were tested for inhibition of PLA2s in in vitro assay systems. The data, summarized in the Examples, are represented as XI(50) values unless otherwise noted. XI(50) is defined as the inhibitor concentration that produced 50% inhibition. XI(50) is used as opposed to the more common IC50 because GIVA and GVIA PLA2 are active at a two-dimensional lipid interface rather than in three-dimensional solution. (Deems, Anal. Biochem., 287:1-16, 2000). For the groups that received delayed treatment after symptoms occurred, mice were treated with daily intraperitoneal injections of AX059 starting from the first day of clinical symptoms, beginning on day 11; and AX115 starting from the first day of clinical peak (i.e., score 4), beginning of day 14. All inhibitors were administered for 2 weeks. The selectivity of the compounds for the different PLA2s is shown as the percentage inhibition in Table 1. The XI(50) is the mole fraction of the inhibitor in the total substrate interface required to inhibit the enzyme by 50%. PLA2 inhibitors. It has been previously reported that long chain 2-oxoamides based on gamma-amino acids are potent inhibitors of cPLA2 (GIVA). […] A 2-oxoamide based on a glycine methyl ester, AX115, inhibits sPLA2 (GV) as well as cPLA2 (GIVA) and iPLA2 (GVIA). […]

The test system of assay [1] is fatty acids attached to phospholipid classes in spinal cord. The assay can be described thus: lipid profiling of spinal cords of EAE mice (fatty acid hydrolysis). It is filed as in vivo, mouse. The settings on record: for Treatment: mean ± SD, n=3; for % Difference: treated EAE vs naive. The method, then: Spinal cords were removed from vehicle and inhibitor treated animals at the peak stage of disease when the vehicle-treated mice reached the clinical score of 4, and the tissue snap frozen in liquid nitrogen. Lipid profiling was carried out by Lipomics Technology Inc. (West Sacramento, Calif.). The tissues were then extracted for either TrueMass® lipid profiling, or an eicosanoid inflammatory panel analysis. The lipids from the tissues were extracted in the presence of authentic internal standards as previously described (55), using chloroform:methanol (2:1 v/v). Individual lipid classes within each extract were separated by liquid chromatography (Agilent Technologies model 1100 Series). Each lipid class was trans-esterified in 1% sulfuric acid in methanol in a sealed vial under a nitrogen atmosphere at 100° C. for 45 min. The resulting fatty acid methyl esters were extracted from the mixture with hexane containing 0.05% butylated hydroxytoluene and prepared for gas chromatography by sealing the hexane extracts under nitrogen. Fatty acid methyl esters were separated and quantified by capillary gas chromatography (Agilent Technologies model 6890) equipped with a 30 m DB-88MS capillary column (Agilent Technologies) and a flame-ionization detector. Lipomic Surveyor® software was used to visualize changes within the treated groups. Experiments were repeated with 3 different samples (n=3), and all the detection and analysis was done blind.
As PLA2s hydrolyze fatty acids from the sn-2 position of phospholipids, a comprehensive profiling was carried out of 40 fatty acids (FAs) that are attached to 5 phospholipid classes in extracts of spinal cords of naive mice, EAE mice treated with vehicle, and PLA2 inhibitor-treated EAE mice. […] These tissues were taken from the same groups of mice used for the chemokine/cytokine assay described above.

The subject of assay [2] is SJL/J mice induced with EAE. The assay is described as follows: EAE model of multiple sclerosis, clinical score. It is filed as in vivo, mouse.
For the next assay, the target named is T2, GIIA PLA2 (Homo sapiens, UniProt P14555).
T2 sequence (P14555 21-144): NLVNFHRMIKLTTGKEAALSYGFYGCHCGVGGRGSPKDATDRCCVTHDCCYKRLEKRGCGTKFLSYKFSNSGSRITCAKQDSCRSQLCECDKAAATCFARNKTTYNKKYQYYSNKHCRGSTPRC
The assay is described as follows: vesicle assay for GIIA PLA2. It is filed as biochemical. The source says:
Vesicle assays have generally been employed for this enzyme, but they have limitations for in vitro comparison of inhibitor potency.

On to `CCCCCCCCCCCCCCC(=O)C(=O)NCC(=O)OC` [AX115], for which the “Inhibition sPLA2 GIVA/GV*” value on sPLA2 (GV) is given as 52%. Moreover, the “Treatment” value in assay [1] (Cardiolipin - arachidic, naive 464.0 ± 69.4) amounted to 324.4 ± 27.5 nmol; in assay [1] (Cardiolipin - eicosapentaenoic, naive 16.1 ± 4.8), 3.2 ± 5.5 nmol; in assay [1] (Phosphatidylcholine - arachidic, naive 347.9 ± 20.1) it was 269.4 ± 24.9 nmol; in assay [1] (Phosphatidylcholine - eicosenoic, naive 1666.2 ± 46.4) it was 1393.4 ± 52.5 nmol; in assay [1] (Phosphatidylserine - tetracosahexanoic, naive 9.7 ± 0.8), 6.4 ± 0.6 nmol; in assay [1] (Phosphatidylserine-1-enyl-octadecenoic, naive 217.4 ± 37.9), 133.3 ± 32.5 nmol. Also, the “% Difference” value in assay [1] (Cardiolipin - arachidic) is recorded as 30.1%; in assay [1] (Cardiolipin - eicosapentaenoic) it was 80.3%; in assay [1] (Phosphatidylcholine - arachidic), 22.5%; in assay [1] (Phosphatidylcholine - eicosenoic), 16.4%; in assay [1] (Phosphatidylcholine - erucic), 22.4%; in assay [1] (Phosphatidylserine - tetracosahexanoic) it was 33.8%. Besides, in assay [1] (Phosphatidylserine-1-enyl-octadecenoic), the “% Difference” value was 38.7%. Besides, the “mean maximal peak clinical grade at day 17” value in assay [2] (delayed treatment from peak of first attack, did not differ from vehicle) is around 3. The “clinical score on day 35” value in assay [2] (delayed treatment from peak of first attack, vehicle 2.3) is on record as 2.8. Further, the “clinical score on day 23” value in assay [2] (delayed treatment from peak of first attack, vehicle about 1.4) was 2.5. In addition, the “clinical course of EAE vs vehicle control” value in assay [2] (delayed treatment from peak of first clinical attack (day 14), daily i.p.) is recorded as “prevents remission of the disease; also recorded: remission was prevented; also recorded: worsened the disease”; in assay [2] (treatment before onset of symptoms, from day 5/6 after immunization, daily for 3 weeks), “no statistical significance; also recorded: did not differ from vehicle treated control mice; also recorded: did not substantially differ from vehicle treated controls”. The “inhibition of GIIA compared with GV PLA2” value against GIIA PLA2 is recorded as “comparable inhibition”.

These data come from patent US8420852B2, “Phospholipase A2 inhibitors and their use in treating neurological injury and disease” (The Regents of the University of California, priority 2007, dated 2013).
